Reference: patent publication US10213375B2, “Cosmetic or dermatological compositions combining cosmetiques retinaldehyde and glycylglycine oleamide and the cosmetic or dermatological uses thereof” (PIERRE FABRE DERMO-COSMETIQUE, priority 2013, dated 2019)
Where a SMILES comes first, the peptide text is derived from it.

How the values were obtained:
[1] = system: epidermal retinoids; conditions: hairless mice, topical 0.05% for 7 days, then UVB 1 J/cm^2, cited from earlier work; for Prevention of photo-induced depletion of epidermal retinylic esters / retinoids: assayed 24 h after radiation
[2] = system: CD44 and hyaluronate in follicular and interfollicular epidermis; conditions: topical application, mice; cited from earlier work
[3] = system: keratinocytes A431; assay: Modulation of retinylic esters induced by retinoids in keratinocytes (HPLC); type: cell-based; conditions: for Retinol / Retinylic esters: incubation 24 to 72 h, averaged values; for Total: retinol plus retinylic esters
Protocol: The study was carried out on keratinocytes A431 in a culture. Indeed, in these cells, no endogenous retinoid was measured. A retinoid has to be applied beforehand in order to measure cell retinoids. The retinoids were measured by HPLC. The incubation in the presence of various agents or combination of agents dissolved in 1% of ethanol in the culture medium, was carried out for 24 to 72 h. These are averaged values expressed in pmol/mg of protein.

[4] = biological target: T1, glucocerebrosidase (Homo sapiens, UniProt P04062); conditions: compared with reference 4-methylumbelliferyl glucopyranoside; cited from earlier work
T1 sequence (P04062 40-536): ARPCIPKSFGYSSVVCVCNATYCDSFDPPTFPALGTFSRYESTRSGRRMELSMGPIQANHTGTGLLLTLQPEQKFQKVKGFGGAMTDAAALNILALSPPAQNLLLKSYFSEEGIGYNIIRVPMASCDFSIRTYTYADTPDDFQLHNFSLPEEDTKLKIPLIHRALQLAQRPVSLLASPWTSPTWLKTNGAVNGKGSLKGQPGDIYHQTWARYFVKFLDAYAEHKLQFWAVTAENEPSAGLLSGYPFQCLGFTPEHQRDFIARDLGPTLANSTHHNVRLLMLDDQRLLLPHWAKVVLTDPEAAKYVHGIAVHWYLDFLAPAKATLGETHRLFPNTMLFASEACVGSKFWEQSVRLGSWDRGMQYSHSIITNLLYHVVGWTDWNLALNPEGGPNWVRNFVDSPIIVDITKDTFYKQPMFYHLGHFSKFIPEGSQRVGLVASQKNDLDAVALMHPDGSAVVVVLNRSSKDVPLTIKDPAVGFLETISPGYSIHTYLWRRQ

Compound | Induction / modulation of retinylic esters and cell retinoids in keratinocytes (in words) [3] | Retinol ([3]; agent 15 μM in 1% ethanol) | Retinylic esters ([3]; agent 15 μM in 1% ethanol) | Total ([3]; agent 15 μM) | other results
CC1=C(/C=C/C(C)=C/C=C/C(C)=C/C=O)C(C)(C)CCC1 [RAL, retinaldehyde] | induces a series of retinylic esters |  |  |  | Prevention of photo-induced depletion of epidermal retinylic esters / retinoids [1]: prevent photo-induced depletion of epidermal retinylic esters; Profile in the study of photo-induced depletion of retinoids [1]: best profile; Epidermal hyperplasia [2]: inducing epidermal hyperplasia; Expression of CD44 and of hyaluronate versus retinoic acid and retinol [2]: more strongly increased; Retinol ([3]; agent 2 μM in 1% ethanol): 865 pmol/mg of protein; Retinylic esters ([3]; agent 2 μM in 1% ethanol): 280 pmol/mg of protein; Total ([3]; agent 2 μM): 1145 pmol/mg of protein
glycylglycine oleamide [OGG] | significantly increased | <10 pmol/mg of protein | <10 pmol/mg of protein | <10 pmol/mg of protein | 
CCCCCCCCCCCCCCCC(=O)OC/C=C(C)/C=C/C=C(C)/C=C/C1=C(C)CCCC1(C)C [ROL-Pal, retinyl palmitate] | less cell retinoids than retinaldehyde | 389 pmol/mg of protein | 178 pmol/mg of protein | 567 pmol/mg of protein | 
CC1=C(/C=C/C(C)=C/C=C/C(C)=C/CO)C(C)(C)CCC1 [retinol, reference compound] |  |  |  |  | Prevention of photo-induced depletion of epidermal retinylic esters / retinoids [1]: prevent photo-induced depletion of epidermal retinylic esters
NCC(=O)NCC(=O)O [GG, glycylglycine] (H-Gly-Gly-OH) |  | <10 pmol/mg of protein | <10 pmol/mg of protein | <10 pmol/mg of protein | 
Cc1cc(O[C@@H]2O[C@H](CO)[C@@H](O)[C@H](O)[C@H]2O)cc2c1O[C@](C)(CCC[C@H](C)CCC[C@H](C)CCCC(C)C)CC2 [delta-tocopherol-glucopyranoside] |  |  |  |  | Release of delta-tocopherol on enzymatic hydrolysis [4]: slowly releases delta-tocopherol
CCCCCCCC/C=C\CCCCCCCC(=O)O [OA, oleic acid] |  | <10 pmol/mg of protein | <10 pmol/mg of protein | <10 pmol/mg of protein | 
